The values below come from US10611760B2, “Therapeutic compounds as inhibitors of the orexin-1 receptor” (C4X Discovery Limited, priority 2014, dated 2020).

Counter-ions that a name gives are not always drawn.

Type in all cases: cell-based
Test [1] addresses T1, hOX2R (Homo sapiens, UniProt O43614).
T1 sequence (O43614 1-444): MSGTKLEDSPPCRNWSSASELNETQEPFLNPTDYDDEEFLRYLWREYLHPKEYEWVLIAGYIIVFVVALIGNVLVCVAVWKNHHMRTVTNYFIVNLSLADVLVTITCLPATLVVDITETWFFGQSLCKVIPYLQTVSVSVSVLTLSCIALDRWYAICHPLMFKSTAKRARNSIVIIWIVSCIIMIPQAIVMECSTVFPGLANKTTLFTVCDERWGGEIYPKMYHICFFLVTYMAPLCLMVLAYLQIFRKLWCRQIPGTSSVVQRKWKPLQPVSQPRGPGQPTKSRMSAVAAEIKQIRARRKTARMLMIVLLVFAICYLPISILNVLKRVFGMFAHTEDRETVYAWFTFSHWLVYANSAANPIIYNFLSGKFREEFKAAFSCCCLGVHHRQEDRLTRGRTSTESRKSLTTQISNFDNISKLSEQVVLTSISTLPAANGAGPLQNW
As to the kind of experiment: Intracellular calcium measurements using stable-replicating cells, Method B (CHO cells, FLIPR Tetra), OX2. As to conditions: orexin A at EC75, read-out: pIC50 OX2 (converted). As for the experimental part: (§1) Intracellular Calcium Measurements Using Stable-replicating Cells:
(§2) Human OX1 or human OX2 receptor expressing CHO cells are plated into 384 well black, clear bottom, CellBIND plates at a seeding density of 10,000 cells/75 μL growth media. The seeded plates are incubated at 37° C. in air supplemented with 5% CO2 overnight.
(§3) The next day media is removed and replaced with 30 μL/well of cell loading buffer (a vial of Calcium 5 is solubilized in 20 mL of assay buffer) and the cells incubated for 1 hr at 37° C. The serially diluted test compounds (10 μL/well) are added to the cell plate by the FLIPR Tetra and the addition is monitored for 5 mins by the instrument. The cell plate is then removed and incubated for additional 25 mins in a humidified incubator at […] prior to being placed back into the FLIPR Tetra. Finally 10 μL of orexin A in assay buffer +0.1% (w/v) bovine serum albumin is dispensed by the FLIPR Tetra at an EC75 concentration determined for each assay run. Fluorescence is measured at excitation and emission wavelengths of 485 nm and 525 nm respectively and data analyzed using GraphPad Prism for the EC75 value of orexin A and Aplus to determine an IC50 value for each test compound.
On the technique in general: Calcium flux is commonly read through the fluorescence of an indicator in the cells.

Test [2] deals with T2, hOX1R (Homo sapiens, UniProt O43613).
T2 sequence (O43613 1-425): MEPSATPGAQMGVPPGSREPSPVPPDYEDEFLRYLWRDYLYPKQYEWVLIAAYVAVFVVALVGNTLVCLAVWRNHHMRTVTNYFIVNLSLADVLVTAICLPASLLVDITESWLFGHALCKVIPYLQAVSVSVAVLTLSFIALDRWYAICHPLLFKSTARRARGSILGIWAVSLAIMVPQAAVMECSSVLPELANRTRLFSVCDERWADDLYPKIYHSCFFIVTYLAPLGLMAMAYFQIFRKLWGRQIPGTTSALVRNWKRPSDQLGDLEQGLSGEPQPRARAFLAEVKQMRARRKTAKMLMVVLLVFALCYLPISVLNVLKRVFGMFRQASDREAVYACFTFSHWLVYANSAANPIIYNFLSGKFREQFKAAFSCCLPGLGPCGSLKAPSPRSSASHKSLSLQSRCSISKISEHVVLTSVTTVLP
The test can be described thus: Intracellular calcium measurements using stable-replicating cells, Method B (CHO cells, FLIPR Tetra), OX1. The conditions noted are these: orexin A at EC75, read-out: pIC50 OX1 (converted). As to the method: as §1, §2, §3

Test [3] concerns the target T2, hOX1R. The test can be described thus: Intracellular calcium measurements using division-arrested cells, OX1. The conditions noted are these: agonist orexin A at 2×EC50, * = single experiment, otherwise average of at least two, read-out: pIC50 OX1 (converted). As for the experimental part:
(§4) Intracellular Calcium Measurements Using Division-arrested Cells (Table 1):
(§5) Test compounds are prepared as 10 mM stock solutions in DMSO, then serially diluted in half log concentrations with DMSO followed by dilution with assay buffer (HBSS (Sigma-Aldrich, H8264) containing 20 mM HEPES (Sigma-Aldrich, H4034), 0.1% (w/v) bovine serum albumin and adjusted to pH 7.4) to a top final assay concentration of 10 μM.
(§6) Human OX1 (CT-A474) and human OX2 (CT-A475) receptor-expressing division-arrested cells are plated into 384 well black, clear bottom, cell-bind plates at a seeding density of 10,000 cells/50 μL growth media. The seeded plates are incubated at 37° C. in air supplemented with 5% CO2 for 16 hrs.
(§7) The media is removed and replaced with 30 μL/well of cell loading buffer (a vial of Calcium 5 is solubilized in 22 mL of assay buffer to which a freshly prepared 250 mM solution of probenecid in 1:1 1M NaOH to assay buffer (200 μL) is added) and the cells incubated for 1 hr at 37° C. The serially diluted test compounds (10 μL/well) are added to the plate, which is then incubated for 10 mins and placed in a FlexStation III reader.

Test [4] addresses T1, hOX2R. The test can be described thus: Intracellular calcium measurements using division-arrested cells, OX2. The conditions noted are these: agonist orexin B at 2×EC50, * = single experiment, otherwise average of at least two, read-out: pIC50 OX2 (converted). As for the experimental part:
as §4, §5, §6, §7

For the compound `Cc1ccc(-n2nccn2)c(C(=O)N(C)[C@H](CNc2ncc(C(F)(F)F)cn2)C(C)C)n1` [Example 66, (S)—N,6-dimethyl-N-(3-methyl-1-((5-(trifluoromethyl)pyrimidin-2-yl)amino)butan-2-yl)-3-(2H-1,2,3-triazol-2-yl)picolinamide], the IC50 on hOX2R [1] is > 631 nM; at hOX1R [2], 12.6 nM.
Take `CC[C@@H](CNc1cnc2ccccc2n1)N(C)C(=O)c1nc(C)ccc1-n1nccn1` [Example 65, (S)—N,6-dimethyl-N-(1-(quinoxalin-2-ylamino)butan-2-yl)-3-(2H-1,2,3-triazol-2-yl)picolinamide]: the IC50 on hOX2R [1] is 794 nM; on hOX1R [2] it was 2 nM.
Consider `CC[C@@H](CN(CCOC)c1ncc(C(F)(F)F)cn1)N(C)C(=O)c1nc(C)ccc1-n1nccn1` [Example 83, (S)—N-(1-((2-methoxyethyl)(5-(trifluoromethyl)pyrimidin-2-yl)amino)butan-2-yl)-N,6-dimethyl-3-(2H-1,2,3-triazol-2-yl)picolinamide], for which the IC50 was > 1000 nM at hOX2R [1] and 12.6 nM on hOX1R [2].
With `CC[C@@H](CNc1ncc(C(F)(F)F)cn1)N(C)C(=O)c1nc(C)ccc1-n1cncn1` [Example 89, (S)—N,6-dimethyl-3-(1H-1,2,4-triazol-1-yl)-N-(1-((5-(trifluoromethyl)pyrimidin-2-yl)amino)butan-2-yl)picolinamide formic acid salt], the IC50 is > 10000 nM on hOX2R [1] and 2000 nM on hOX1R [2].
In the case of `Cc1ccc(-n2nccn2)c(C(=O)N(C)[C@H](CNc2ncc3ccccc3n2)C(C)C)n1` [Example 68, (S)—N,6-dimethyl-N-(3-methyl-1-(quinazolin-2-ylamino)butan-2-yl)-3-(2H-1,2,3-triazol-2-yl)picolinamide], the IC50 on hOX2R [1] is > 1000 nM; at hOX1R [2], 15.8 nM.
In the case of `CC[C@@H](CNc1ccc(Cl)cn1)N(C)C(=O)c1cc(OC(F)(F)F)ccc1-n1nccn1` [Example 20, (S)—N-(1-((5-chloropyridin-2-yl)amino)butan-2-yl)-N-methyl-2-(2H-1,2,3-triazol-2-yl)-5-(trifluoromethoxy)benzamide], the IC50 at hOX2R [1] was 3160 nM; on hOX1R [2] it was 100 nM; on hOX1R [3], 200 nM.
Turning to `Cc1ccc(-n2nccn2)c(C(=O)N(C)[C@H](CNc2ccc(C(F)(F)F)cn2)C(C)C)n1` [Example 69, (S)—N,6-dimethyl-N-(3-methyl-1-((5-(trifluoromethyl)pyridin-2-yl)amino)butan-2-yl)-3-(2H-1,2,3-triazol-2-yl)picolinamide], the figures for the IC50 on hOX2R [1] and on hOX1R [2] were 3160 nM and 3.16 nM, respectively.
Regarding `CC[C@@H](CNc1ccc(Cl)cn1)N(C)C(=O)c1cc(C(F)(F)F)cnc1-n1nccn1` [Example 24, (S)—N-(1-((5-chloropyridin-2-yl)amino)butan-2-yl)-N-methyl-2-(2H-1,2,3-triazol-2-yl)-5-(trifluoromethyl)nicotinamide], the IC50 was > 10000 nM at hOX2R [1], > 10000 nM on hOX2R [4], 3980 nM on hOX1R [2] and 2000 nM on hOX1R [3].
With `CC[C@@H](CN(C)c1ncc(C(F)(F)F)cn1)N(C)C(=O)c1nc(C)ccc1-n1nccn1` [Example 82, (S)—N,6-dimethyl-N-(1-(methyl(5-(trifluoromethyl)pyrimidin-2-yl)amino)butan-2-yl)-3-(2H-1,2,3-triazol-2-yl)picolinamide], the IC50 at hOX2R [1] was > 10000 nM; at hOX1R [2], 7.94 nM.
Regarding `CC[C@@H](CNc1ccc2ncccc2n1)N(C)C(=O)c1nc(C)ccc1-n1nccn1` [Example 76, (S)—N-(1-((1,5-naphthyridin-2-yl)amino)butan-2-yl)-N,6-dimethyl-3-(2H-1,2,3-triazol-2-yl)picolinamide], the IC50 at hOX2R [1] was > 2000 nM; at hOX1R [2] it was 25.1 nM.
Take `Cc1ccc(-n2nccn2)c(C(=O)N(C)[C@H](CNc2ccc(Cl)cn2)C(C)C)c1` [Example 49, (S)—N-(1-((5-chloropyridin-2-yl)amino)-3-methylbutan-2-yl)-N,5-dimethyl-2-(2H-1,2,3-triazol-2-yl)benzamide]: the IC50 was > 3980 nM on hOX2R [1], > 5010 nM on hOX2R [4], 5.01 nM on hOX1R [2] and 31.6 nM on hOX1R [3].
For the compound `CC[C@@H](CNc1ncc(C(F)(F)F)cn1)N(C)C(=O)c1c(F)cccc1-n1nccn1` [Example 91, (S)-2-fluoro-N-methyl-6-(2H-1,2,3-triazol-2-yl)-N-(1-((5-(trifluoromethyl)pyrimidin-2-yl)amino)butan-2-yl)benzamide], the IC50 on hOX2R [1] was > 7940 nM; on hOX1R [2] it was 25.1 nM.
As for `CC[C@@H](CNc1ncc(C(F)(F)F)cn1)N(CC)C(=O)c1nc(C)ccc1-n1nccn1` [Example 73, (S)—N-ethyl-6-methyl-3-(2H-1,2,3-triazol-2-yl)-N-(1-((5-(trifluoromethyl)pyrimidin-2-yl)amino)butan-2-yl)picolinamide], the IC50 at hOX2R [1] is > 1000 nM.
Turning to `CC[C@@H](CNc1ncc(C(F)(F)F)cn1)N(C)C(=O)c1nc(C)ccc1-n1cccn1` [Example 90, (S)—N,6-dimethyl-3-(1H-pyrazol-1-yl)-N-(1-((5-(trifluoromethyl)pyrimidin-2-yl)amino)butan-2-yl)picolinamide formic acid salt], the IC50 at hOX2R [1] was > 1000 nM; at hOX1R [2] it was 2 nM.
Taken in the same sequence, the figures for `CC[C@@H](CNc1ccc(C(F)(F)F)cn1)N(CC)C(=O)c1nc(C)ccc1-n1nccn1` [Example 71, (S)—N-ethyl-6-methyl-3-(2H-1,2,3-triazol-2-yl)-N-(1-((5-(trifluoromethyl)pyridin-2-yl)amino)butan-2-yl)picolinamide] were 316 nM and 1 nM.
For `CC[C@@H](CNc1ccc(Cl)cn1)N(C)C(=O)c1cc(OC)c(C)cc1-n1nccn1` [Example 87, (S)—N-(1-((5-chloropyridin-2-yl)amino)butan-2-yl)-5-methoxy-N,4-dimethyl-2-(2H-1,2,3-triazol-2-yl)benzamide], the IC50 on hOX1R [2] was 3.98 nM.
Same read-out and setting: to `CC[C@@H](CNc1ncc2ccccc2n1)N(CC)C(=O)c1nc(C)ccc1-n1nccn1` [Example 72, (S)—N-ethyl-6-methyl-N-(1-(quinazolin-2-ylamino)butan-2-yl)-3-(2H-1,2,3-triazol-2-yl)picolinamide] belongs 1.58 nM.
Regarding `Cc1ccc(-n2nccn2)c(C(=O)N(C)[C@H](CNc2ncc(C(F)(F)F)cn2)C2CC2)n1` [Example 74, (S)—N-(1-cyclopropyl-2-((5-(trifluoromethyl)pyrimidin-2-yl)amino)ethyl)-N,6-dimethyl-3-(2H-1,2,3-triazol-2-yl)picolinamide], the IC50 on hOX2R [1] is > 10000 nM; at hOX1R [2] it was 2000 nM.
